Assay results: patent publication US20240016781A1, “TREATMENT OF KRAS MUTANT CANCERS” (MEI Pharma, Inc., priority 2020, published 2024)
Like-named read-outs stand apart in the source and are kept apart here.

How the values were obtained:
Assay in all cases: 72-hour CellTiter-Glo 2.0 growth inhibition screen (single agent, 9x9 combination dose matrix)
Format in all cases: cell-based
KYSE-410 = conditions: for EC50: KYSE-410, 72 h
Description: (§1) Growth inhibition was determined using a 72-hour CellTiter-Glo®2.0 proliferation assay. Combination format was a 9×9 dose matrix. Six of the 20 cell lines received the original two combinations whilst the remaining 14 cell lines received two additional combinations resulting in four combinations in total. Results have been supplied as both Chalice Analyzer files (.mcc) and raw luminescence data.
(§2) Cell lines that have been preserved in liquid nitrogen are thawed and expanded in growth media (see Appendix I). Once cells have reached expected doubling times, screening begins. Cells are seeded in 25 μl of growth media in black 384-well tissue culture treated plates at 500 cells per well (as noted in Analyzer). Cells are equilibrated in assay plates via centrifugation and placed at 37° C. 5% CO2 for twenty-four hours before treatment. […] Compounds are transferred to assay plates using and Echo acoustic liquid handling system. […] of each compound was added at the appropriate concentration for all combination dose points. Therefore, final assay volume would be 25.05 μl. Assay plates are incubated with compound for 3 days and are then analyzed using CellTiter-Glo 2.0. All data points are collected via automated processes and are subject to quality control and analyzed.
(§3) If T≥V_0:100*(1−(T−V_0)/(V−V_0)) • where T is the signal measure for a test article, V is the untreated/vehicle-treated control measure, and Vo is the untreated/vehicle control measure at time zero (also colloquially referred as TO plates). This formula is derived from the Growth Inhibition calculation used in the National Cancer Institute's NCI-60 high throughput screen. For the purposes of this disclosure, all data analysis was performed in Growth Inhibition (except where noted).
(§4) Inhibition is also provided as a measure of cell viability. […] Inhibition of 100% represents no doubling of cell numbers during the treatment window. Both cytostatic and cytotoxic treatments can yield an Inhibition percentage of 100%. Inhibition percentage is calculated as the following: […]
(§5) The fractional inhibition for each component agent and combination point in the matrix is calculated relative to the median of all untreated/vehicle-treated control wells. The Synergy Score equation integrates the experimentally-observed activity volume at each point in the matrix in excess of a model surface numerically derived from the activity of the component agents using the Loewe model for additivity. Additional terms in the Synergy Score equation (above) are used to normalize for various dilution factors used for individual agents and to allow for comparison of synergy scores across an entire experiment. The inclusion of positive inhibition gating or an Idata multiplier removes noise near the zero-effect level, and biases results for synergistic interactions at that occur at high activity levels. Combinations with higher maximum Growth Inhibition (GI) effects or those which are synergistic at low concentrations will have higher Synergy Scores.
(§6) The CI is a rough estimate of how much drug was needed in combination relative to the single agent doses required to achieve the chosen effect level. CI values in the range of 0.5-0.7 are typical for in vitro measurements of current clinical combinations. The CI error (σCI) is calculated using standard error propagation through the CI calculation based on the isobologram errors. In the Chalice Analyzer, the Best CI is reported from the many CI values calculated for each Icut crossing combination. Among all the measured CI values, the one with the largest single-to-noise level (1−CI)/σCI is reported as the Best CI. Best CI Level is the effect level from which the CI is calculated.

HCC1171 = tested on: HCC1171
Description: as §1, §2, §3, §4, §5, §6

SW48 KRAS (G12D/+) = conditions: for EC50: SW48, 72 h, read-out: EC50
Description: as §1, §2, §3, §4, §5, §6

SW48 = conditions: for EC50: SW48, 72 h
Description: as §1, §2, §3, §4, §5, §6

Panc 04.03 = conditions: for EC50 / Response Area: Panc 04.03, Pancreas
Description: as §1, §2, §3, §4, §5, §6

[1] = Homo sapiens, KYSE-410, Esophageal, Additional Single Agent Responses (inhibition, % I), 72 h
[2] = Homo sapiens, KYSE-410, Esophageal, growth inhibition (GI) curve, single agent, 72 h
[3] = KYSE-410 (KRAS G12C), enhancer + MEI-522 (Voruciclib), 72 h
[4] = enhancer combined with MEI-522 (Voruciclib), KYSE-410 (Esophageal), 72 hours, inhibition data
[5] = HCC1171 (KRAS G12C), enhancer + MEI-522 (Voruciclib), 72 h
[6] = HCC1171, Lung, Additional Single Agent Responses (inhibition, % I), 72 h
[7] = enhancer combined with MEI-522 (Voruciclib), HCC1171 (Lung), 72 hours, inhibition data
[8] = Homo sapiens, SW48 KRAS (G12D/+), Colorectal, Additional Single Agent Responses (inhibition, % I), 72 h
[9] = Homo sapiens, SW48 KRAS (G12D/+), Colorectal, growth inhibition (GI) curve, single agent, 72 h
[10] = SW48 KRAS (G12D/+), enhancer + MEI-522 (Voruciclib), 72 h
[11] = enhancer combined with MEI-522 (Voruciclib), SW48 KRAS (G12D/+) (Colorectal), 72 hours, inhibition data
[12] = Homo sapiens, SW48, Colorectal, Additional Single Agent Responses (inhibition, % I), 72 h
[13] = Homo sapiens, SW48, Colorectal, growth inhibition (GI) curve, single agent, 72 h
[14] = SW48 (KRAS WT), enhancer + MEI-522 (Voruciclib), 72 h
[15] = enhancer combined with MEI-522 (Voruciclib), SW48 (Colorectal), 72 hours, inhibition data
[16] = Panc 04.03 (KRAS G12D), enhancer + MEI-522 (Voruciclib), 72 h
[17] = enhancer combined with MEI-522 (Voruciclib), Panc 04.03 (Pancreas), 72 hours, inhibition data

## CN1CCN(c2ccc(OC(F)(F)F)c(Nc3ncc4c(n3)-c3c(c(C(N)=O)nn3CCO)CC4)c2)CC1 [Onvansertib]
KYSE-410; [1]
  EC50: 34.9 nM
  IC50: 55.5 nM
KYSE-410; [2]
  EC50: 34.7 nM
  GI50: 43.1 nM
KYSE-410; Homo sapiens, KYSE-410, Esophageal, Additional Single Agent Responses, 72 h, read-out: Max Response (% I)
  Emax: 65%
KYSE-410; Homo sapiens, KYSE-410, Esophageal, growth inhibition (GI), single agent, 72 h, read-out: Max Response (% GI)
  Emax: 78%
KYSE-410; [3]
  Best CI: 0.60
  Bliss Volume: −1.39
  HSA volume: −2.18
  Loewe Volume: −2.01
  Synergy Score: 0.29
KYSE-410; KYSE-410, Esophageal, Additional Single Agent Responses (inhibition, % I), 72 h
  Response Area: 2.89
KYSE-410; KYSE-410, Esophageal, growth inhibition (GI), AUC, single agent, 72 h
  Response Area: 3.49
KYSE-410; [4]
  Best CI: 0.68
  Bliss Volume: −1.63
  HSA volume: −1.72
  Loewe Volume: −1.53
  Synergy Score: 0.20
KYSE-410; enhancer combined with MEI-522 (Voruciclib), KYSE-410 (Esophageal), 72 hours, inhibition data, unit assumed
  Best CI Level: 20%
HCC1171; [5]
  Best CI: 1.01
  Bliss Volume: −2.83
  HSA volume: −2.66
  Loewe Volume: −1.72
  Synergy Score: 1.86
HCC1171; [6]
  EC50: 15.5 nM
  Response Area: 1.75
HCC1171; HCC1171, Lung, Additional Single Agent Responses, 72 h, read-out: Max Response (% I)
  Emax: 46%
HCC1171; HCC1171, Lung, growth inhibition (GI) curve, single agent, 72 h
  GI50: 33 nM
HCC1171; HCC1171, Lung, growth inhibition (GI), AUC, single agent, 72 h
  Response Area: 3.02
HCC1171; HCC1171, Lung, growth inhibition (GI), single agent, 72 h, read-out: Max Response (% GI)
  Emax: 81%
HCC1171; [7]
  Best CI: 0.62
  Bliss Volume: −3.14
  HSA volume: −1.61
  Loewe Volume: −1.03
  Synergy Score: 0.59
HCC1171; enhancer combined with MEI-522 (Voruciclib), HCC1171 (Lung), 72 hours, inhibition data, unit assumed
  Best CI Level: 50%
SW48 KRAS (G12D/+); [8]
  EC50: 14 nM
  IC50: 17.8 nM
SW48 KRAS (G12D/+); [9]
  EC50: 15.7 nM
  GI50: 13.9 nM
SW48 KRAS (G12D/+); Homo sapiens, SW48 KRAS (G12D/+), Colorectal, Additional Single Agent Responses, 72 h, read-out: Max Response (% I)
  Emax: 92%
SW48 KRAS (G12D/+); Homo sapiens, SW48 KRAS (G12D/+), Colorectal, growth inhibition (GI), single agent, 72 h, read-out: Max Response (% GI)
  Emax: 168%
SW48 KRAS (G12D/+); SW48 KRAS (G12D/+), Colorectal, Additional Single Agent Responses (inhibition, % I), 72 h
  Response Area: 3.73
SW48 KRAS (G12D/+); SW48 KRAS (G12D/+), Colorectal, growth inhibition (GI), AUC, single agent, 72 h
  Response Area: 5.57
SW48 KRAS (G12D/+); [10]
  Best CI: 0.39
  Bliss Volume: 5.34
  HSA volume: −1.32
  Loewe Volume: 1.06
  Synergy Score: 8.15
SW48 KRAS (G12D/+); [11]
  Best CI: 0.51
  Bliss Volume: −0.39
  HSA volume: −0.28
  Loewe Volume: 0.65
  Synergy Score: 2.12
SW48 KRAS (G12D/+); enhancer combined with MEI-522 (Voruciclib), SW48 KRAS (G12D/+) (Colorectal), 72 hours, inhibition data, unit assumed
  Best CI Level: 20%
SW48; [12]
  EC50: 13.8 nM
  IC50: 14.3 nM
SW48; [13]
  EC50: 15.4 nM
  GI50: 13.4 nM
SW48; Homo sapiens, SW48, Colorectal, Additional Single Agent Responses, 72 h, read-out: Max Response (% I)
  Emax: 95%
SW48; Homo sapiens, SW48, Colorectal, growth inhibition (GI), single agent, 72 h, read-out: Max Response (% GI)
  Emax: 177%
SW48; [14]
  Best CI: 0.72
  Bliss Volume: 6.27
  HSA volume: −3.43
  Loewe Volume: −1.93
  Synergy Score: 7.50
SW48; SW48, Colorectal, Additional Single Agent Responses (inhibition, % I), 72 h
  Response Area: 4.36
SW48; SW48, Colorectal, growth inhibition (GI), AUC, single agent, 72 h
  Response Area: 7.09
SW48; [15]
  Best CI: 0.76
  Bliss Volume: −0.78
  HSA volume: −0.51
  Loewe Volume: −0.74
  Synergy Score: 1.28
SW48; enhancer combined with MEI-522 (Voruciclib), SW48 (Colorectal), 72 hours, inhibition data, unit assumed
  Best CI Level: 20%
Panc 04.03; Homo sapiens, Panc 04.03, 72 h
  GI50: 50.8 nM
Panc 04.03; Homo sapiens, Panc 04.03, 72 h, Additional Single Agent Responses (inhibition, % I), 72 h
  EC50: 18.7 nM
Panc 04.03; Homo sapiens, Panc 04.03, 72 h, growth inhibition (GI) curve, single agent, 72 h
  EC50: 19.2 nM
Panc 04.03; Homo sapiens, Panc 04.03, 72 h, read-out: Max Response (% GI)
  Emax: 70%
Panc 04.03; Homo sapiens, Panc 04.03, 72 h, read-out: Max Response (% I)
  Emax: 54%
Panc 04.03; [16]
  Best CI: 0.32
  Bliss Volume: 2.32
  HSA volume: 0.85
  Loewe Volume: 0.87
  Synergy Score: 1.99
Panc 04.03; Additional Single Agent Responses (inhibition, % I), 72 h
  Response Area: 1.94
Panc 04.03; growth inhibition (GI), AUC, single agent, 72 h
  Response Area: 2.60
Panc 04.03; [17]
  Best CI: 0.64
  Best CI Level: 20
  Bliss Volume: 0.17
  HSA volume: 0.61
  Loewe Volume: 0.89
  Synergy Score: 0.98
